Measured values as given in patent US20240132449A1, “HETEROCYCLIC COMPOUNDS AND METHODS OF USE THEREOF” (1cBio, Inc., priority 2022, published 2024).
Counter-ions that a name gives are not always drawn.

Experiments:
recombinant human PARP2 = recombinant human PARP2 (Homo sapiens, UniProt Q9UGN5); experiment: PARP2 fluorescence polarization binding assay; conditions: for IC50: binding IC50, GST-tagged PARP2 20 nM, PARPi-FL 3 nM; for inhibition at 10 µM: read-out: PARP2 % inh at 10 μM
In short: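 GST-tagged PARP2, added at 40 nM in 50 mM Tris pH 8.0, 0.001% Triton X-100, 10 mM MgCl2, 150 mM NaCl, was preincubated 30 min at RT with compound (10-point 3-fold series or single concentration). PARPi-FL probe was then added at 6 nM for 4 h. IC50 was fitted from fluorescence polarization (ex 480/em 535 nm) with floating top and bottom.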

MDA-MB-436 cells = experiment: Colony formation assay; format: cell-based; conditions: Homo sapiens, seeding density 2000-4000 cells/well and treatment time 12-14 days
Description: A colony formation assay was performed to assess the activity of test compounds. MDA-MB-436 cells were harvested, counted and seeded in culture medium (DMEM+10% FBS+1% PS) at a specified density in a volume of 600-1000 μL per well in a 24-well cell culture plate. The plates were incubated overnight at 37° C. in a 5% CO2 incubator. Test compounds were dissolved in DMSO and added to the plate in duplicate wells for each concentration tested. On day 7, the supernatant was removed and 1000 μL of freshly diluted compounds were added to the plates. The plates were returned to incubator to continue incubation. After treatment with the compounds for a specified number of days, e.g. 10-14 days, detection was performed. For detection, the plate was incubated for 20 min after removing the medium and adding fixing solution. Subsequently, the fixing solution was removed and the plates washed with PBS. The plates were then stained with staining solution (0.1% (w/v) crystal violet). After removal of the staining solution, the plates were washed with PBS and scanned on a LICOR imager using the 700 nm channel.

[1] = tested on: DLD-1 wild-type colorectal adenocarcinoma cells; experiment: Cell viability assay (Cell Titer-Glo), DLD-1 wild-type; format: cell-based; conditions: Homo sapiens, DLD-1, 168 h, 7 days incubation; for inhibition at 10 µM: read-out: DLD-1 wild-type % inh at 10 μM; for IC50: 50 cells/well
In short: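 Isogenic DLD-1 wild-type (50 cells/well) and BRCA2(−/−) (200 cells/well) lines treated after overnight attachment, 7 days at 37 °C, 5% CO2. Ten-point dilutions (e.g. 1.5 nM–30 μM) or single dose; CellTiter-Glo luminescence; IC50 from four-parameter fit, plus % inhibition at 10 μM.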

Chain of recombinant human PARP2 (Q9UGN5 whole entry): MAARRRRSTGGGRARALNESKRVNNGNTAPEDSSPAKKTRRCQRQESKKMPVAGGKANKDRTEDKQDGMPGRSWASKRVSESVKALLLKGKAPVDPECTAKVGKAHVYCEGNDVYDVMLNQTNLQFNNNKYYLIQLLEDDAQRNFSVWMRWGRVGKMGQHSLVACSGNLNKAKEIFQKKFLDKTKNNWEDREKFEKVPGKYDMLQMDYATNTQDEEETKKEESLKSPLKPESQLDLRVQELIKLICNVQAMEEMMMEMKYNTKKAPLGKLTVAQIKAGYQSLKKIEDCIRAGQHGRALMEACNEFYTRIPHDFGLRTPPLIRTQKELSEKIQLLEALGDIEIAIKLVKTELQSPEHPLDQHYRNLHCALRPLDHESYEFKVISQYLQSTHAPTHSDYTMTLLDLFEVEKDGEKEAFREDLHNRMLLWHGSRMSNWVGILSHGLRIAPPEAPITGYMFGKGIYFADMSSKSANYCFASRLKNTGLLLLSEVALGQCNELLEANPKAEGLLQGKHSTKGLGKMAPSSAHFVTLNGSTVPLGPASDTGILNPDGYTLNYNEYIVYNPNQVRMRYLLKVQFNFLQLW

SMILES | IC50 (recombinant human PARP2) [µM] | inhibition at 10 µM (recombinant human PARP2) [%] | inhibition at 0.3 µM (MDA-MB-436 cells) [%] | inhibition at 3 µM (MDA-MB-436 cells) [%] | inhibition at 30 µM (MDA-MB-436 cells) [%] | inhibition at 10 µM [1] [%] | IC50 [1] [µM]
CCn1c(=O)[nH]c2cc(CN3CCN(c4ccc(C(=O)NC)nc4C)CC3)ccc2c1=O [Compound 16, 5-{4-[(3-ethyl-2,4-dioxo-1H-quinazolin-7-yl)methyl]piperazin-1-yl}-N,6-dimethylpyridine-2-carboxamide] | > 3 | 33 to 67 | ≥ 66.7 | ≥ 66.7 | ≥ 66.7 | < 33 | > 3
CCn1c(=O)[nH]c2cc(CN3CCN(c4ccc(C(=O)NC)nc4)CC3)ccc2c1=O [Compound 3, 5-(4-((3-ethyl-2,4-dioxo-1,2,3,4-tetrahydroquinazolin-7-yl)methyl)piperazin-1-yl)-N-methylpicolinamide formate] | > 3 | 33 to 67 | ≥ 66.7 | ≥ 66.7 | ≥ 66.7 | < 33 | > 3
CCn1c(=O)[nH]c2cc(CN3CCN(c4ccc(C(=O)NC)nc4C)CC3)ccc2c1=S [Compound 51, 5-(4-((3-ethyl-2-oxo-4-thioxo-1,2,3,4-tetrahydroquinazolin-7-yl)methyl)piperazin-1-yl)-N,6-dimethylpicolinamide formate] | > 3 | 33 to 67 | ≥ 66.7 | ≥ 66.7 | ≥ 66.7 | > 67 | > 3
CCN1Cc2ccc(CN3CCN(c4ccc(C(=O)NC)nc4)CC3)cc2NC1=O [Compound 196, 5-(4-((3-ethyl-2-oxo-1,2,3,4-tetrahydroquinazolin-7-yl)methyl)piperazin-1-yl)-N-methylpicolinamide formate] | > 3 | 33 to 67 | < 33.3 | 33.3 to 66.7 | 33.3 to 66.7 | < 33 | > 3
CCn1c(=O)[nH]c2cc(CN3CCN(c4ccc(C(=O)NC)nc4C)CC3)sc2c1=O [Compound 188, 5-(4-((3-ethyl-2,4-dioxo-1,2,3,4-tetrahydrothieno[3,2-d]pyrimidin-6-yl)methyl)piperazin-1-yl)-N,6-dimethylpicolinamide] | > 3 | 33 to 67 | ≥ 66.7 | ≥ 66.7 | ≥ 66.7 | < 33 | > 3
